Data taken from PubChem BioAssay (NCI).
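Following 48 hours of exposure in 96-well plates, responses at five concentrations were used to interpolate endpoints linearly. The concentration for full growth arrest is given as TGI.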

Columns and labels:
Experiment in all cases: NCI tumour cell line growth inhibition, 48 h
PC-3 prostate = system: PC-3 prostate
DMS 273 small cell lung = system: DMS 273 small cell lung
P388 leukemia = system: P388 leukemia
P388/ADR leukemia = system: P388/ADR leukemia
SNB-78 CNS = system: SNB-78 CNS
LXFL 529 NSCLC = system: LXFL 529 NSCLC
RXF-631 renal = system: RXF-631 renal

In the case of CC(=O)Nc1ccc(Sc2nnc(NC(C)=O)s2)cc1, the TGI (PC-3 prostate) is reported as > 100 µM.
Work on C=CCCCCCCCCC(=O)O yielded a TGI (DMS 273 small cell lung) of 289 µM, a TGI (P388 leukemia) of 379 µM and a TGI (P388/ADR leukemia) of 264 µM. For the same compound, the TGI (SNB-78 CNS) was 607 µM.
COc1cccc2c1C(=O)c1c(O)c3c(c(O)c1C2=O)C[C@@](O)(C(=O)CO)CC3OC1CC(NCCCC(OC(C)=O)OC(C)=O)C(O)C(C)O1 (some centres not stated) was tested, and the TGI (LXFL 529 NSCLC) was 0.00872 µM and the TGI (RXF-631 renal) was 0.000897 µM.
